Laboratory results taken from patent US7598258B2, “Quinoline derivatives and quinazoline derivatives inhibiting autophosphorylation of macrophage colony stimulating factor receptor” (Kirin Beer Kabushiki Kaisha, priority 2002, dated 2009).

Target: T1, Human KDR (Homo sapiens, UniProt P35968)
T1 construct: expressed in transfected cells; host or cells: NIH3T3 cells (mouse fibroblasts)
Experiment: Inhibition of KDR phosphorylation in human KDR-transfected NIH3T3 cells (ELISA);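 for Selection ratio (KDR phosphorylation IC50 / c-fms phosphorylation IC50): class 2 means ratio of 10 or more and class 3 means 50 or more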
Format: cell-based
Conditions: for Selection ratio (KDR phosphorylation IC50 / c-fms phosphorylation IC50): class 0-3; for IC50: human KDR-transfected NIH3T3 cells, VEGF 100 ng/ml, ELISA, read-out: KDR phosphorylation 50% inhibitory concentration (IC50)
How it was run: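 NIH3T3 cells transfected with human KDR, in 0.1% FCS medium, treated with compound 1 hr at 37° C, then stimulated with VEGF 100 ng/ml for 2 min. Lysate KDR phosphorylation measured by anti-phosphotyrosine capture/anti-KDR ELISA (A450); IC50 from inhibition normalized between VEGF-stimulated and unstimulated wells.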

T1 sequence (P35968 20-1356): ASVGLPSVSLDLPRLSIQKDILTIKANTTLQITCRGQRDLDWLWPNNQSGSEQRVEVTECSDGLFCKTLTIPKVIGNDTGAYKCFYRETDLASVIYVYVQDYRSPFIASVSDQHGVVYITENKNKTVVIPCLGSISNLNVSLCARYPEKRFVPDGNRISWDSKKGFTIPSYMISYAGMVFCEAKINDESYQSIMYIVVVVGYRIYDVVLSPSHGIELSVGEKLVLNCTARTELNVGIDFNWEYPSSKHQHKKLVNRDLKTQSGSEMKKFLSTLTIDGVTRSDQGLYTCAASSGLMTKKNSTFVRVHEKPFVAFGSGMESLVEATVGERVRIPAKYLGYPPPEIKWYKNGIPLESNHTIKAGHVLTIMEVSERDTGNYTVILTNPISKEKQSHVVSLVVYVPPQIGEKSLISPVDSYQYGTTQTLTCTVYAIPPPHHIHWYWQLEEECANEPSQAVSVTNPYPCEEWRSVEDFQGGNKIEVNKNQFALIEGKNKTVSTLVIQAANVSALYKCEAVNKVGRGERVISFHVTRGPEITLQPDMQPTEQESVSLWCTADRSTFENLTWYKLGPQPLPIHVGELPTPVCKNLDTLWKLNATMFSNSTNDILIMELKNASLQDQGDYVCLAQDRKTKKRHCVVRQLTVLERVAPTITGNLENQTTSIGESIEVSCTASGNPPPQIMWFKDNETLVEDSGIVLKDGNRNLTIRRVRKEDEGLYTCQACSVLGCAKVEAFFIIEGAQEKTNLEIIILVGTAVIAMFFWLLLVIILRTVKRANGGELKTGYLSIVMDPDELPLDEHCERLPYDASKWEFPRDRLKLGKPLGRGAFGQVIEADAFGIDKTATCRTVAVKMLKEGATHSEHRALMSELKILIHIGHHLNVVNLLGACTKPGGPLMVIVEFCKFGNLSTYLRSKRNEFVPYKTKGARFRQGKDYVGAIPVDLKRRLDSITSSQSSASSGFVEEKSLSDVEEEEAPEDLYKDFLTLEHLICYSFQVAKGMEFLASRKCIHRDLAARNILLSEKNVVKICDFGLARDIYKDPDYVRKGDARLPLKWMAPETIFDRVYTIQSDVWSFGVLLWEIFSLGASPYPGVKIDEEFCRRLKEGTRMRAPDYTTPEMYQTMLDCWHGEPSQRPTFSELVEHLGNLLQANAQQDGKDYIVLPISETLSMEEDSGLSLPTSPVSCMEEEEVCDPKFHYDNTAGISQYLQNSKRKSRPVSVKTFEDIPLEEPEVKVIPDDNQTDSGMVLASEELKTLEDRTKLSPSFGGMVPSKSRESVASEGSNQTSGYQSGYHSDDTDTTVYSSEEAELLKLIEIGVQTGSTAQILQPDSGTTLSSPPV

IC50 [µM]	Structure (SMILES)	Selection ratio (KDR phosphorylation IC50 / c-fms phosphorylation IC50)
0.0323	COc1cc2nccc(Oc3ccc(NC(=O)N[C@@H](C)c4ccc(F)cc4)cc3)c2cc1OC [Example 2, N-{4-[(6,7-Dimethoxy-4-quinolyl)oxy]phenyl}-N′-[(1S)-1-(4-fluorophenyl)ethyl]urea]	2 (when the value was 10 or more)
0.31	COc1cc2nccc(Oc3ccc(NC(=O)N[C@@H](C)c4ccc([N+](=O)[O-])cc4)cc3)c2cc1OC [Example 35, N-{4-[(6,7-Dimethoxy-4-quinolyl)oxy]phenyl}-N′-[(1S)-1-(4-nitrophenyl)ethyl]urea]	2 (when the value was 10 or more)
0.0025	COc1cc2nccc(Oc3ccc(NC(=O)N[C@H](C)c4cccc(Br)c4)cc3)c2cc1OC [Example 45, N-[(1R)-1-(3-Bromophenyl)ethyl]-N′-{4-[(6,7-dimethoxy-4-quinolyl)oxy]phenyl}urea]	0 (KDR phosphorylation 50% inhibitory concentration [μM]/c-fms phosphorylation 50% inhibitory concentration [μM] was less than 5)
0.31	COc1cc2nccc(Oc3ccc(NC(=O)N[C@@H](C)c4ccc(Cl)cc4)cc3)c2cc1OC [Example 47, N-[(1S)-1-(4-Chlorophenyl)ethyl]-N′-{4-[(6,7-dimethoxy-4-quinolyl)oxy]phenyl}urea]	3 (when the value was 50 or more)
0.0454	COc1cccc([C@H](C)NC(=O)Nc2ccc(Oc3ccnc4cc(OC)c(OC)cc34)cc2)c1 [Example 49, N-{4-[(6,7-Dimethoxy-4-quinolyl)oxy]phenyl}-N′-[(1S)-1-(3-methoxyphenyl)ethyl]urea]	2 (when the value was 10 or more)
0.0027	COc1cc2nccc(Oc3ccc(NC(=O)N[C@H](C)c4ccc(Cl)cc4)cc3)c2cc1OC [Example 48, N-[(1R)-1-(4-Chlorophenyl)ethyl]-N′-{4-[(6,7-dimethoxy-4-quinolyl)oxy]phenyl}urea]	0 (KDR phosphorylation 50% inhibitory concentration [μM]/c-fms phosphorylation 50% inhibitory concentration [μM] was less than 5)
0.507	COc1cc2nccc(Oc3ccc(NC(=O)N[C@@H](C)c4cccc(Br)c4)cc3)c2cc1OC [Example 46, N-[(1S)-1-(3-Bromophenyl)ethyl]-N′-{4-[(6,7-dimethoxy-4-quinolyl)oxy]phenyl}urea]	3 (when the value was 50 or more)
< 0.001	COc1cc2nccc(Oc3ccc(NC(=O)N[C@H](C)c4ccc(F)cc4)cc3)c2cc1OC [Example 3, N-{4-[(6,7-Dimethoxy-4-quinolyl)oxy]phenyl}-N′-[(1R)-1-(4-fluorophenyl)ethyl]urea]	0 (KDR phosphorylation 50% inhibitory concentration [μM]/c-fms phosphorylation 50% inhibitory concentration [μM] was less than 5)
0.0283	COc1cccc([C@@H](C)NC(=O)Nc2ccc(Oc3ccnc4cc(OC)c(OC)cc34)cc2)c1 [Example 50, N-{4-[(6,7-Dimethoxy-4-quinolyl)oxy]phenyl}-N′-[(1R)-1-(3-methoxyphenyl)ethyl]urea]	0 (KDR phosphorylation 50% inhibitory concentration [μM]/c-fms phosphorylation 50% inhibitory concentration [μM] was less than 5)
0.134	COc1cc2nccc(Oc3ccc(NC(=O)N[C@H](C)c4ccc([N+](=O)[O-])cc4)cc3)c2cc1OC [Example 36, N-{4-[(6,7-Dimethoxy-4-quinolyl)oxy]phenyl}-N′-[(1R)-1-(4-nitrophenyl)ethyl]urea]	0 (KDR phosphorylation 50% inhibitory concentration [μM]/c-fms phosphorylation 50% inhibitory concentration [μM] was less than 5)
0.0166	COc1cc2nccc(Oc3ccc(NC(=O)N[C@H](C)c4ccc(C)cc4)cc3)c2cc1OC [Example 42, N-{4-[(6,7-Dimethoxy-4-quinolyl)oxy]phenyl}-N′-[(1R)-1-(4-methylphenyl)ethyl]urea]	0 (KDR phosphorylation 50% inhibitory concentration [μM]/c-fms phosphorylation 50% inhibitory concentration [μM] was less than 5)
0.0188	COc1cc2nccc(Oc3ccc(NC(=O)N[C@@H](C)c4ccc(C)cc4)cc3)c2cc1OC [Example 41, N-{4-[(6,7-Dimethoxy-4-quinolyl)oxy]phenyl}-N′-[(1S)-1-(4-methylphenyl)ethyl]urea]	1 (when the value was 5 or more)
